Data from ChEMBL document CHEMBL4138231 (Eur J Med Chem, 2018).
Active and inactive are the calls of the source. The calls are words filed in the database; no cut-off is given here.

Legend:
NCI-H1975 = experiment: Antiproliferative activity against human NCI-H1975 cells after 72 hrs by CCK8 assay; type: functional
A549 = experiment: Antiproliferative activity against human A549 cells after 72 hrs by CCK8 assay; type: functional
HeLa = experiment: Antiproliferative activity against human HeLa cells after 72 hrs by CCK8 assay; type: functional
K562 = experiment: Antiproliferative activity against human K562 cells after 72 hrs by CCK8 assay; type: functional; conditions: K562, 72 h
[1] = molecular target: Serine/threonine-protein kinase PLK2 (Homo sapiens, UniProt Q9NYY3); experiment: Inhibition human recombinant full length GST-tagged Plk2 expressed in baculovirus expression system after 1 hr by FRET-based Z'-Lyte assay
MCF7 = experiment: Antiproliferative activity against human MCF7 cells after 72 hrs by CCK8 assay; type: functional
[2] = molecular target: Serine/threonine-protein kinase PLK3 (Homo sapiens, UniProt Q9H4B4); experiment: Inhibition human recombinant GST-tagged Plk3 catalytic domain (58 to 340 residues) expressed in baculovirus expression system after 1 hr by FRET-based Z'-Lyte assay
Huh-7 = experiment: Antiproliferative activity against human HuH7 cells after 72 hrs by CCK8 assay; type: functional
[3] = molecular target: Serine/threonine-protein kinase PLK1 (Homo sapiens, UniProt P53350); experiment: Inhibition human recombinant full length His-tagged Plk1 expressed in baculovirus expression system after 1 hr by FRET-based Z'-Lyte assay
Serine/threonine-protein kinase PLK1, sequence (P53350 whole entry): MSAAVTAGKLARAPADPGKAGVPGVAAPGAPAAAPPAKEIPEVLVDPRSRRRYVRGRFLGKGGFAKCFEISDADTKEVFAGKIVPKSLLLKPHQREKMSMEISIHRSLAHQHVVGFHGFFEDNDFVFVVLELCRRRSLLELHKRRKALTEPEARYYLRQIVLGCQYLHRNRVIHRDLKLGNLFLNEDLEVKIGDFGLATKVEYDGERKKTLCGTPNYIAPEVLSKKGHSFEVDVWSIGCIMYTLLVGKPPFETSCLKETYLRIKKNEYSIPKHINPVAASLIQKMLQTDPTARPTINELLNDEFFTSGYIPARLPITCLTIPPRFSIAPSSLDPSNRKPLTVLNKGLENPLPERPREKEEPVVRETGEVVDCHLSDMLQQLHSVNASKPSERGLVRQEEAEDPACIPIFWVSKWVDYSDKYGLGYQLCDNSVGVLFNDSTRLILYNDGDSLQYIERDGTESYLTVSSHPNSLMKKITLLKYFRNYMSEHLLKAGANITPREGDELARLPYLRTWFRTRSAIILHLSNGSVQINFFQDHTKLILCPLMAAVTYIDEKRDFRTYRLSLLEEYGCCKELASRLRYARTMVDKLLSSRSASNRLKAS

Serine/threonine-protein kinase PLK2, sequence (Q9NYY3 whole entry): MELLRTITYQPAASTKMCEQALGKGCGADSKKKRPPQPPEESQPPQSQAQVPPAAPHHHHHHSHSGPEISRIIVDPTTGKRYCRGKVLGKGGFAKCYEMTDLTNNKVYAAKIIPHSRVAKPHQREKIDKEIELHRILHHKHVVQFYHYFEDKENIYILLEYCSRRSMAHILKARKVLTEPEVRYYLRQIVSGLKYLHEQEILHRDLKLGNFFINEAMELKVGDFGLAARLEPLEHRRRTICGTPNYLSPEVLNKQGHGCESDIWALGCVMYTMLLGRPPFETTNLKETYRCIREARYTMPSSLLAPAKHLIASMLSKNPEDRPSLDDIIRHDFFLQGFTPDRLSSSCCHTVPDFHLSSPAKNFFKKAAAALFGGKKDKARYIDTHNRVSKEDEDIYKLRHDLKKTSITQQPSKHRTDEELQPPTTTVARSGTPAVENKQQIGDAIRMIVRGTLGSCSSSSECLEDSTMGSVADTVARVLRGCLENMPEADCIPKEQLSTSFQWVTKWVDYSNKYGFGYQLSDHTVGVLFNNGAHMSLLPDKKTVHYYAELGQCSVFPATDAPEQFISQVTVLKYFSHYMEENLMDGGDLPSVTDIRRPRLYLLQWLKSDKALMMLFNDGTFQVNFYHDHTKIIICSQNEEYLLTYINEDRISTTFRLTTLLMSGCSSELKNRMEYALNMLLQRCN
Serine/threonine-protein kinase PLK3, sequence (Q9H4B4 whole entry, the tested form may be a part): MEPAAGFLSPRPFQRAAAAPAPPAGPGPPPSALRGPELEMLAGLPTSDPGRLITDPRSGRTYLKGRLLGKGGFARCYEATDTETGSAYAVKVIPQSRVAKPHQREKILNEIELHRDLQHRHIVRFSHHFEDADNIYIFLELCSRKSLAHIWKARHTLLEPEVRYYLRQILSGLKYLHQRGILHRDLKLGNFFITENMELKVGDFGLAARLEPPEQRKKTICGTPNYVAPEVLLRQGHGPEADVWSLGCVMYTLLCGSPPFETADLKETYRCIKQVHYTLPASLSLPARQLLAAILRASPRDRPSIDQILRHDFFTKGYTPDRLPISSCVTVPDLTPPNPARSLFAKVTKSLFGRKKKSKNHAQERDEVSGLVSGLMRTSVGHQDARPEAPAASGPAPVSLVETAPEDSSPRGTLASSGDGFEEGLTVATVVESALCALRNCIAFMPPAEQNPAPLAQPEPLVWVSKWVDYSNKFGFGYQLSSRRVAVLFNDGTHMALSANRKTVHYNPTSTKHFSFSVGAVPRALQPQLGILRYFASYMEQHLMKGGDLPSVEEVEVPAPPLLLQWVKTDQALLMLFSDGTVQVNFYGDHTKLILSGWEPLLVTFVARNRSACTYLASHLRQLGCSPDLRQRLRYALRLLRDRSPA

Row | GI50 (NCI-H1975; NCI-H1975, 72 h) | GI50 (A549; A549, 72 h) | GI50 (HeLa) | GI50 (K562) | IC50 [1] | GI50 (MCF7; MCF7, 72 h) | IC50 [2] | GI50 (Huh-7; Huh-7, 72 h) | GI50 (NCI-H1975) | GI50 (MCF7) | GI50 (Huh-7) | GI50 (A549) | IC50 [3] | Structure (SMILES)
1 | 35.7 µM | 43.1 µM | 6.33 µM | 13.3 µM | 0.218 µM | 35.4 µM | > 10 µM | 13.2 µM |  |  |  |  |  | CCC1C(=O)N(C)c2cnc(-n3ccc4cc(C(=O)NC)ccc43)nc2N1c1ccn(C)n1 (racemic)
2 | 12 µM | 37.3 µM | 4.26 µM | 14.1 µM | 0.159 µM | 8.99 µM | > 10 µM | 8.67 µM |  |  |  |  |  | CCCCNC(=O)c1ccc2c(ccn2-c2ncc3c(n2)N(c2ccn(C)n2)C(CC)C(=O)N3C)c1 (racemic)
3 |  | 21.7 µM | 11.1 µM | 12.8 µM | 0.243 µM | 13.2 µM | > 10 µM | 20.3 µM | inactive |  |  |  |  | CCNC(=O)c1ccc2c(ccn2-c2ncc3c(n2)N(c2ccn(C)n2)C(CC)C(=O)N3C)c1 (racemic)
4 | 12.2 µM | 22 µM | 4.35 µM | 8.91 µM | 0.124 µM | 8.42 µM | > 10 µM | 6.74 µM |  |  |  |  |  | CCC1C(=O)N(C)c2cnc(-n3ccc4cc(C(=O)NC(C)C)ccc43)nc2N1c1ccn(C)n1 (racemic)
5 | 10.2 µM | 19.2 µM | 4.97 µM | 5.6 µM | 0.159 µM | 4.81 µM | > 10 µM | 5.07 µM |  |  |  |  |  | CCC1C(=O)N(C)c2cnc(-n3ccc4cc(C(=O)NCC(C)C)ccc43)nc2N1c1ccn(C)n1 (racemic)
6 |  | 39.5 µM | 27.4 µM | 31.3 µM | 0.384 µM |  | > 10 µM |  | inactive | inactive | inactive |  |  | CCC1C(=O)N(C)c2cnc(-n3ccc4cc(C(N)=O)ccc43)nc2N1c1ccn(C)n1 (racemic)
7 | 28.6 µM |  | inactive | 6.07 µM | 1.5 µM | 24.7 µM | > 10 µM |  |  |  | inactive | inactive | > 10 µM | CCC1C(=O)N(C)c2cnc(-n3ccc4cc(F)ccc43)nc2N1c1ccn(C)n1 (racemic)
8 | 46.5 µM |  | inactive | 21.2 µM | 0.969 µM |  | > 20 µM | 16 µM |  | inactive |  | inactive |  | CC[C@@H]1C(=O)N(C)c2cnc(-n3ccc4cc(F)ccc43)nc2N1C1CCCC1
9 | 11 µM |  | 6.16 µM | 8.27 µM | 0.207 µM | 6.42 µM | > 10 µM | 7.28 µM |  |  |  | inactive |  | CCCNC(=O)c1ccc2c(ccn2-c2ncc3c(n2)N(c2ccn(C)n2)C(CC)C(=O)N3C)c1 (racemic)
